Measured values taken from paper PMC11420707, “Functional and Immunologic Mapping of Domains of the Reticulocyte-Binding Protein Plasmodium vivax PvRBP2a” (The Journal of Infectious Diseases, 2024).
Residues, ends and D or L forms follow the SMILES beside them. *: point of attachment. Biotin = O=C1N[C@H]2[C@H](CS[C@H]2CCCCC(=O)*)N1

What was measured:
[1] = molecular target: soluble recombinant CD98 protein (Homo sapiens, UniProt P08195); assay: biochemical
Procedure: PvRBP2a epitopes for reticulocyte and CD98 binding. […] Reticulocytes were blocked with the polyclonal rabbit anti-CD98 antibody (KE020) or a rabbit isotype control antibody for 15 minutes before staining with biotinylated peptide candidates and detection with streptavidin-APC. Reticulocytes were distinguished from normocytes via thiazole orange staining. […] (B) Candidate binding peptides were tested for direct binding to CD98 via biolayer interferometry. 2µM biotinylated peptides were loaded onto streptavidin-coated sensors, which was immersed in a solution of 200nM CD98 to assess binding. (C) Peptides with detectable binding in the initial binding screen were further analyzed for their binding kinetics to CD98 via biolayer interferometry, with 3 independent replicates. The mean and standard error for dissociation constant (KD), on-rate (ka) and off-rate (kd) are given.
Binding sensorgrams were collected on the Octet Red 96e system. Fresh streptavidin sensors were used without any regeneration step. Streptavidin sensor, without biotinylated peptide loading, but with maximum concentration of non-biotinylated CD98 was used as the reference. Kinetic binding assays were performed using Octet Data Acquisition version 10.0.1.3 at 37°C with orbital shaking speed of 1,000 rpm. The assay was carried out in PBS buffer supplemented with 0.05% Tween-20 and 1mg/mL BSA (PBST/BSA). For initial screening, the biosensor was sequentially dipped into wells containing 200µL of solution each: i) baseline, PBST/BSA (30 s), ii) loading, 2µM biotinylated peptide fragment or vehicle control (VC) (5 min), iii) washing, PBST/BSA (30 s), iv) blocking, 25µM biocytin (5 min) to minimize non-specific binding of CD98, v) washing, PBST/BSA (30 s), vi) association, 200 nM non-biotinylated CD98 (30 min) and vii) dissociation, PBST/BSA (15 min).

[2] = tested on: fresh human reticulocytes; assay: Reticulocyte-binding assay (flow cytometry); format: cell-based; conditions: 15 µg/mL biotinylated peptide, 37°C 1 hour; for binding to reticulocytes (% of reticulocytes bound): CD71-enriched cord blood reticulocytes, streptavidin-APC and thiazole orange, 2 independent replicates
Procedure: Fresh human cord blood was enriched for reticulocytes with CD71 microbeads and MACS columns (supplementary methods). Reticulocytes were washed twice with cold phosphate-buffered saline, added to 15 µg/mL of peptide solution, and incubated at 37°C for 1 hour. Reticulocytes were then stained with streptavidin-APC and thiazole orange at 37°C for 1 hour, washed, and acquired on a flow cytometer.
Reticulocytes were enriched from the human cord blood through the selection of CD71+ reticulocytes, using human CD71 microbeads (Miltenyi Biotec, clone AC108.1). Around 1-2ml of blood at 50% haematocrit in PBS was passed through a LS column. After two washing steps using PBS, the reticulocytes were stained with reticulocyte stain (Sigma Aldrich New Methylene Blue) and viewed under the microscope to ensure >80% purity of reticulocytes after selection.

[3] = tested on: sera from donors infected with P vivax; assay: ELISA of peptide antigenicity against donor sera; format: binding, human; conditions: for antigenicity against the seropositive sera mix: individual peptides, pooled sera of 20 P vivax-infected donors 1:267; for antigenic in seropositive cases (cases/donors): individual seropositive sera 1:1000, 20 donors
Source text: We next sought to identify the immunodominant epitopes within the PvRBP2a23-767 CD98-binding domain. Groups of 5 adjacent peptides each were pooled and examined for antigenicity against a mix of sera from 20 donors infected with P vivax (positive by blood smear microscopy) via enzyme-linked immunosorbent assay (Figure 2A). Binding against at least 15 negative donors (non–P vivax exposed) was also examined to control for nonspecific binding. […] To confirm their antigenicity, these peptides were then examined against individual seropositive or seronegative sera. PepLib 3 and PepLib 53 were antigenic in a minority of seropositive cases (7/20 and 2/20, respectively; Supplementary Figure 3B), whereas PepLib 52 was antigenic in most seropositive cases (18/20; Figure 2B). Thus, we identified PepLib 52 (PvRBP2a431-448) as the most reactive linear B-cell epitope in the CD98-binding region of PvRBP2a.
Figure 2. Identification of antigenic and functional linear epitopes of PvRBP2a. A, Peptides were pooled into groups of 5 and coated on streptavidin plates. Pooled sera were added from donors infected with Plasmodium vivax. Following washing, binding of peptides to donor sera was quantified with an anti-human horseradish peroxidase secondary antibody. The baseline was determined to be the mean + 3 SD of the reactivity of the seronegative sample pool to all peptide pools, and peptide pools showing a greater optical density (OD) value were deemed immunoreactive. B, The antigenicity of the antigenic peptide hit, PepLib_52, was confirmed by plasma from 20 donors who were seropositive and 22 who were seronegative. C, The effect of PvRBP2a-derived linear epitope peptides on P vivax invasion was examined on 5 P vivax clinical isolates. Selected CD98-binding PvRBP2a peptide candidates that were in cluster A (PepLib_25, PepLib_49) or cluster B/immunodominant (PepLib_41, PepLib_52), as well as negative control peptides (PepLib_50, PepLib_56) and positive control monoclonal antibodies (anti-Duffy 2C3, anti-CD98 HBJ127), were tested for their ability to inhibit P vivax invasion into reticulocytes. One well without addition of peptide or antibody served as a control for measurement of baseline reinvasion level. *P < .05 by 2-tailed t test with Shapiro-Wilk normality test.
Streptavidin-coated plates (Pierce) were blocked with 1% casein/1% BSA in 0.1% PBST overnight at 4°C, then coated with blocked with PvRBP2a-derived biotinylated peptides at 1:1000 dilution (approximately 15ug/ml) in 0.2% casein/0.2% BSA at room temperature for 1 hour. Pooled or individual donor sera was then applied at 1:267 (pooled) or 1:1000 (individual) dilution in 0.2% casein/0.2% BSA at room temperature for 1 hour, followed by secondary goat […] IgG-HRP at 1:1000 dilution in 0.1% casein/0.1% BSA at room temperature for 1 hour, then TMB substrate (Surmodics, BioFX® TMB One Component HRP Microwell Substrate) incubation for 5 minutes.

[4] = tested on: P vivax invasion into human reticulocytes; assay: Inhibition of P vivax reticulocyte invasion; format: cell-based, Plasmodium vivax; conditions: peptide 100 µg/mL, 5 P vivax clinical isolates, parasitemia at 24 hours versus well without peptide
Procedure: • Antibodies: anti-CD98 mouse IgG1 mAb HBJ127 [8] (Absolute Antibody) and anti-human DARC mouse IG1 mAb 2C3 [9] (Absolute Antibody); working concentration, 25 µg/mL • Cluster A or B PvRBP2a peptides: PepLib 25, 41, 49, 52; working concentration, 100 µg/mL • Control PvRBP2a peptides: PepLib 50, 56; working concentration, 100 µg/mL
Fresh/frozen blood isolates of P vivax were matured in vitro and late stages concentrated with MACS LD columns. Purified infected red blood cells were mixed with cord blood–derived CD71+ reticulocytes (sorted with CD71 beads + MACS LS columns). Infected red blood cell–reticulocyte mixtures were each mixed with an antibody/peptide as stated previously. Wells without peptide/antibody served as controls. All groups were cultivated in vitro as described before. Smears were made at the start (H0) to ensure that ring-stage parasitemia was 0% and 24 hours later (H24) to determine parasitemia (10 000 red blood cells counted). Statistically significant differences were identified by 2-tailed paired t test with Shapiro-Wilk normality test, performed in Prism 10.1.2 (GraphPad).

[5] = molecular target: PepLib_40 (PvRBP2a_(335-352)) (Plasmodium vivax); assay: BLI; biotinylated peptides (2 µM) loaded onto streptavidin-coated sensors, immersed in a solution of 200nM CD98
[6] = molecular target: PepLib_21 (PvRBP2a_(183-200)) (Plasmodium vivax); assay: as above
[7] = molecular target: PepLib_49 (PvRBP2a_(407-424)) (Plasmodium vivax); assay: as above
[8] = molecular target: PepLib_36 (PvRBP2a_(303-320)) (Plasmodium vivax); assay: as above

soluble recombinant CD98 protein, sequence (P08195 218-630): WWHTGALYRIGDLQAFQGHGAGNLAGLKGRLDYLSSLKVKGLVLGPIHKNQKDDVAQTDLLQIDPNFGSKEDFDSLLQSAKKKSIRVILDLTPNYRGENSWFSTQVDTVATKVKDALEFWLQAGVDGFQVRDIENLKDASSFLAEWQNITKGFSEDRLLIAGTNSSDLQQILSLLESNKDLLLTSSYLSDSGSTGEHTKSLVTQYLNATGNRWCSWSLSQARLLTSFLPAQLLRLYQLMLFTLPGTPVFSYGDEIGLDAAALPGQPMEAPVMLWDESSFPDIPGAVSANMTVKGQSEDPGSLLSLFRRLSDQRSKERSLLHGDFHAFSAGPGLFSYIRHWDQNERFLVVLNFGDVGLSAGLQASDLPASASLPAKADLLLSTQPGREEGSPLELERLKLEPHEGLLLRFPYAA

## CC[C@H](C)[C@H](NC(=O)[C@H](CCC(=O)O)NC(=O)[C@H](C)NC(=O)[C@H](Cc1ccccc1)NC(=O)[C@H](Cc1ccc(O)cc1)NC(=O)[C@H](CC(N)=O)NC(=O)[C@H](CCSC)NC(=O)[C@H](CCC(N)=O)NC(=O)[C@@H](NC(=O)CNC(=O)[C@H](CO)NC(=O)CNC(=O)[C@H](CO)NC(=O)CCCC[C@@H]1SC[C@@H]2NC(=O)N[C@@H]21)C(C)C)C(=O)N[C@@H](CCCCN)C(=O)N[C@@H](Cc1ccc(O)cc1)C(=O)N[C@@H](Cc1ccc(O)cc1)C(=O)N[C@H](C(=O)N[C@H](C(=O)N[C@@H](Cc1ccc(O)cc1)C(=O)N[C@@H](Cc1c[nH]cn1)C(=O)N[C@@H](Cc1ccc(O)cc1)C(=O)N[C@@H](CCC(=O)O)C(=O)O)[C@@H](C)O)[C@@H](C)CC [PepLib_21] (Biotin-SGSGVQMNYFAEIKYYITYHYE-OH)
[1]
  Kd: 54.9 nM

## CC[C@H](C)[C@H](NC(=O)[C@H](CCC(=O)O)NC(=O)[C@H](Cc1ccc(O)cc1)NC(=O)[C@@H](NC(=O)[C@H](CC(=O)O)NC(=O)[C@@H](NC(=O)[C@H](CCC(=O)O)NC(=O)[C@H](CS)NC(=O)CNC(=O)[C@H](CO)NC(=O)CNC(=O)[C@H](CO)NC(=O)CCCC[C@@H]1SC[C@@H]2NC(=O)N[C@@H]21)[C@@H](C)O)[C@@H](C)O)C(=O)N[C@@H](CCSC)C(=O)N[C@@H](CC(C)C)C(=O)N[C@@H](CCC(=O)O)C(=O)N[C@H](C(=O)N[C@@H](Cc1ccc(O)cc1)C(=O)N[C@H](C(=O)N[C@@H](CCC(=O)O)C(=O)N[C@@H](CCCNC(=N)N)C(=O)N[C@H](C(=O)N[C@@H](CCCCN)C(=O)O)C(C)C)C(C)C)[C@@H](C)CC [PepLib_36] (Biotin-SGSGCETDTYEIMLEIYVERVK-OH)
[1]
  Kd: 47.5 nM

## CC[C@H](C)[C@H](NC(=O)[C@H](CCC(=O)O)NC(=O)[C@H](CCC(N)=O)NC(=O)[C@H](CCCCN)NC(=O)[C@@H](NC(=O)[C@H](CCCCN)NC(=O)[C@H](CC(C)C)NC(=O)[C@H](CCSC)NC(=O)[C@H](CC(C)C)NC(=O)[C@@H](NC(=O)[C@@H](NC(=O)CNC(=O)[C@H](CC(C)C)NC(=O)[C@H](CCC(N)=O)NC(=O)[C@H](CC(C)C)NC(=O)[C@H](CO)NC(=O)[C@H](C)NC(=O)[C@H](CCCCN)NC(=O)CNC(=O)[C@H](CO)NC(=O)CNC(=O)[C@H](CO)NC(=O)CCCC[C@@H]1SC[C@@H]2NC(=O)N[C@@H]21)C(C)C)[C@@H](C)O)C(C)C)C(=O)O [PepLib_40] (Biotin-SGSGKASLQLGVTLMLKVKQEI-OH)
[1]
  Kd: 70 nM

## CC(C)C[C@H](NC(=O)[C@H](CO)NC(=O)[C@H](Cc1ccccc1)NC(=O)[C@H](CCCCN)NC(=O)[C@H](Cc1ccc(O)cc1)NC(=O)[C@@H](NC(=O)[C@H](C)NC(=O)[C@H](Cc1ccc(O)cc1)NC(=O)[C@H](Cc1ccccc1)NC(=O)[C@H](CC(N)=O)NC(=O)[C@H](C)NC(=O)[C@H](CO)NC(=O)[C@H](CC(=O)O)NC(=O)[C@H](Cc1ccccc1)NC(=O)[C@H](Cc1ccc(O)cc1)NC(=O)[C@H](CC(C)C)NC(=O)[C@H](CCCCN)NC(=O)[C@H](CCCCN)NC(=O)CNC(=O)[C@H](CO)NC(=O)CNC(=O)[C@H](CO)NC(=O)CCCC[C@@H]1SC[C@@H]2NC(=O)N[C@@H]21)[C@@H](C)O)C(=O)O [PepLib_49] (Biotin-SGSGKKLYFDSANFYATYKFSL-OH)
[1]
  Kd: 90.3 nM

## ADYARYSNLQIIDIKSKY [PepLib_60, biotinylated 18-mer of the PvRBP2a23-767 peptide library]
[2]
  binding to reticulocytes (% of reticulocytes bound): ≥ 10%

## KLLANLYNKLITYVSEKI [PepLib_53, biotinylated 18-mer of the PvRBP2a23-767 peptide library]
[2]
  binding to reticulocytes (% of reticulocytes bound): ≥ 10%
[3]
  antigenicity against the seropositive sera mix: showed antigenicity
  antigenic in seropositive cases (cases/donors): 2/20

## LYFISKSESMISEFEDTF [PepLib_56, biotinylated 18-mer of the PvRBP2a23-767 peptide library; negative control peptide]
[2]
  binding to reticulocytes (in words): do not show binding to reticulocytes
[4]
  inhibition of parasite invasion into reticulocytes, mean: 50%

## NFYATYKFSLKRADTTTA [PepLib_50, biotinylated 18-mer of the PvRBP2a23-767 peptide library; negative control peptide]
[2]
  binding to reticulocytes (in words): do not show binding to reticulocytes
[4]
  inhibition of parasite invasion into reticulocytes, mean: 10.4%

## PLMSSIQNQINSCVPKKA [PepLib_25, biotinylated 18-mer of the PvRBP2a23-767 peptide library]
[2]
  binding to reticulocytes (% of reticulocytes bound): ≥ 10%
[4]
  inhibition of parasite invasion into reticulocytes, mean: 49.6%

## TAALKEKGKLLANLYNKL [PepLib_52, biotinylated 18-mer of the PvRBP2a23-767 peptide library]
[2]
  binding to reticulocytes (in words): did not bind directly to reticulocytes
[3]
  antigenicity against the seropositive sera mix: showed antigenicity
  antigenic in seropositive cases (cases/donors): 18/20
[4]
  inhibition of parasite invasion into reticulocytes, mean: 60.2%

## TLMLKVKQEIDNNVTISA [PepLib_41, biotinylated 18-mer of the PvRBP2a23-767 peptide library]
[2]
  binding to reticulocytes (% of reticulocytes bound): ≥ 10%
[4]
  inhibition of parasite invasion into reticulocytes, mean: −1.1%

## WPLQDSLNESDKFEYTNG [PepLib_3, biotinylated 18-mer of the PvRBP2a23-767 peptide library]
[3]
  antigenicity against the seropositive sera mix: showed antigenicity
  antigenic in seropositive cases (cases/donors): 7/20

## YVNYLSTLKASLQLGVTL [PepLib_39, biotinylated 18-mer of the PvRBP2a23-767 peptide library]
[2]
  binding to reticulocytes (% of reticulocytes bound): ≥ 10%

## soluble recombinant CD98 protein (from UniProt P08195 1-529) (receptor)
[5]
  Kd: 70 nM
[6]
  Kd: 54.9 nM
[7]
  Kd: 90.3 nM
[8]
  Kd: 47.5 nM
